Results published in patent publication US20250339443A1, “METHOD FOR TREATING OR PREVENTING CALCIUM RELEASE-ACTIVATED CALCIUM CHANNEL OR DISCOIDIN DOMAIN RECEPTOR 2 RELATED DISORDERS OR CONDITIONS” (LumiSTAR Biotechnology, Inc., priority 2023, published 2025).

Columns and labels:
[1] = system: obstruction-induced persistent progression of renal fibrosis; test: Reversible unilateral ureteral obstruction (RUUO) model; assay type: in vivo, mouse
From the text: FIG. 6A illustrates a diagram depicting the timeline of operations and drug delivery. The left ureter was surgically ligated (UUO-L) for 7 days, after which it was re-connected to the bladder (RUUO-L). Various compounds, including DMSO (control), WRG-28, and Av, were intraperitoneally injected daily during ureter ligation (UUO-L) period. After following RUUO-L for an additional 13 days, the right ureter was ligated (UUO-R). Subsequently, mice were housed in metabolic cages on the day after surgery (day 21). On day 22, the left kidneys were removed for further analysis to evaluate kidney function. […] FIG. 6C illustrates the measurement of the Sirius red-positive area in each group, conducted by using Image J from 5-10 images. The protein levels of integrin β1, collagen 1a1, DDR2, α-SMA, E-cadherin, SGLT2, NHE1, and β-actin were assessed in mice treated with WRG-28 (FIG. 6D) and Av (FIG. 6F) using Western blot analysis. Relative protein levels were quantified using Image J (FIG. 6E and FIG. 6G). Each bar represents mean±SEM. In all the graphs, *, **, and *** denote p-values of <0.05, 0.01, and 0.001, respectively.
The left ureter was surgically ligated (UUO-L) for 7 days, after which it was re-connected to the bladder (RUUO-L). Various compounds, including DMSO (control), WRG-28, and Av were intraperitoneally injected for 13 days after the release of left ureter ligation (during RUUO-L period). After 13 days of RUUO-L, the right ureter was ligated (UUO-R). Subsequently, the mice were housed in metabolic cages on the following day of surgery (day 21). On day 22, the left kidneys were removed for further analysis. […] FIG. 7C illustrates the measurement of the Sirius red-positive area in each group using Image J from 5-10 images. The protein levels of integrin β1, collagen 1a1, DDR2, […] were assessed in mice treated with WRG-28 (FIG. 7D) and Av (FIG. 7F) using Western blot analysis. The relative protein levels were measured and quantified using Image J (FIG. 7E and FIG. 7G). Each bar represents the mean±SEM. In all the graphs, *, **, and *** denote p-values of <0.05, 0.01, and 0.001, respectively. NS denotes a p-value >0.05, indicating no significant difference between the two groups.
FIG. 8A, FIG. 8B, FIG. 8C, FIG. 8D, FIG. 8E, FIG. 8F, FIG. 8G, and FIG. 8H illustrate how WRG-28 and Av restore epithelial differentiation and reduce collagen deposition and myofibroblast expansion in RUUO-induced persistent progression of renal fibrosis. The frozen tissue blocks were utilized for immunofluorescence staining. […] Laminin alpha 1 and collagen 1a1 were detected using primary antibodies, followed by secondary antibodies conjugated with Alexa-488 (green) and Alexa-594 (red), respectively. Hoechst 33258 (blue) was used for labeling nuclei. FIG. 8A-(ii) illustrates the fluorescent intensity of collagen 1a1 measured using Image J. Analysis was conducted on 5-10 areas from each of the 5 pictures, with each bar representing the mean±SEM. In FIG. 8A-(i), the thickness of laminin alpha 1 was measured using Image J by analyzing 5-10 areas from each of the 5-10 pictures. The median is marked by a solid line, while the quartiles are indicated by dotted lines. […] FIG. 8B-(iii) illustrates the fluorescent intensity of α-SMA, measured using Image J. Quantification was conducted on at least 5 areas from each of the 5 pictures, with each bar representing the mean±SEM. […] Additionally, Hoechst 33258 (blue) was used for labeling nuclei. FIG. 8C-(iv) illustrates the quantification of apical membrane expression of SGLT2 in SGLT2 positive cells for each condition. Analysis was conducted on at least 5 pictures from each condition, with each bar representing the mean±SEM. […] Hoechst 33258 (blue) was used to label nuclei. The expressions of DDR2 (FIG. 8D-(v)) and AQP1 (FIG. 8D-(vi)) were analyzed and quantified based on 5-8 pictures from each condition. Each bar in the figures represents the mean±SEM. […]

CRAC channel = CRAC channel (Homo sapiens, UniProt Q96D31); test: CRAC channel activity / SOCE by Fura 2-AM cytosolic Ca2+ imaging in HEK293T cells; assay type: cell-based; parameters: endogenous in cells; host or cells: HEK293T; settings: 10 μM, 1 μM thapsigargin then 2 mM Ca2+
Procedure: CRAC channel activity was evaluated by applying 1 μM thapsigargin (Thap.) in a calcium-free solution to deplete the endoplasmic reticulum calcium store, followed by the reintroduction of 2 mM Ca^2+ in an external solution. The concentration of cytosolic calcium ions increases as calcium flows through the CRAC channel, leading to the second peak in cytosolic calcium waves. […] Each bar represents the mean value derived from 47 to 103 cells. […] Each bar represents the mean value derived from 83 to 176 cells. […] Further analyses are presented in FIG. 1I and FIG. 1J, where the second peak of each wave and rate of entry were analyzed. Each bar represents the mean value derived from 72 to 108 cells. […] In all the graphs, each bar represents mean±SEM and *, **, and *** denote p-value <0.05, 0.01, and 0.001, respectively.
Cells were then washed and incubated with the same solution in addition to the supplement of Fura 2-AM for another 15 minutes for fully de-esterification. […] 1 μM thapsigargin was added to induce endoplasmic reticulum (ER) calcium store depletion followed by applying 2 mM calcium solution to assess the activation of calcium release-activated calcium (CRAC) channels. Cells were alternately excited at 340 and 380 nm, and images were acquired every 2 seconds. […] All the images were analyzed by using IGOR Pro software. […]

[2] = serum, compared to DMSO-treated mice, 7*/15d or 7/15*d
[3] = treated after release of obstruction (7/15*d), Western blot
[4] = treated after the obstruction was released (7/15*d)
[5] = treated during obstruction (7*/15d)
[6] = treated during obstruction (7*/15d), Western blot

CRAC channel, sequence (Q96D31 whole entry): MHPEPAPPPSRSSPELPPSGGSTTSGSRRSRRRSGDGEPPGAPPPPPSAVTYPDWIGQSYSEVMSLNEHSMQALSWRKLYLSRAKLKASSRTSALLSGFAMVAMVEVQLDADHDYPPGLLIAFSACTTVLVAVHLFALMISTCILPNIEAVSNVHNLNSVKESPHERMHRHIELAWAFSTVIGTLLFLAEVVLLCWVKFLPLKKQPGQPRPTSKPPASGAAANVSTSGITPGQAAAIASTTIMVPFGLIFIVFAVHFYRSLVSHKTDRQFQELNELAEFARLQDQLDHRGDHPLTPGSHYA

second peak and rate of SOCE (CRAC channel): significantly reduced
Structure (SMILES): CCNS(=O)(=O)c1ccc(COc2ccc3nc4ccc(=O)cc-4oc3c2)cc1 [WRG-28]
expression of DDR2 (immunofluorescence) ([1]; RUUO, compared to the DMSO-treated group): reduced
apical membrane expression of SGLT-2 ([1]; RUUO, immunofluorescence): reversed
atrophic tubules ([1]; RUUO, immunofluorescence): fewer
accumulation of collagen 1a1 (immunofluorescence) ([1]; RUUO, vs DMSO treated group): mitigated
expression of α-SMA (immunofluorescence) ([1]; RUUO, vs DMSO treated group): markedly reduced
level of BUN [1, 2]: significantly reduced
level of CRE [1, 2]: significantly reduced
kidney histology (H&E) ([1]; treated 7 days during ureter obstruction (7*/15d)): preserved the intact tubular structure
kidney histology (H&E) compared to DMSO-treated mice ([1]; treated 13 days after release of obstruction (7/15*d)): numerous intact tubular structures, less inflammation and scar tissue
collagen-positive area (Sirius red) ([1]; treated after release of obstruction (7/15*d)): reduced
downregulation of epithelial marker proteins, E-cadherin, SGLT2 and NHE1 [1, 3]: only partially reversed
obstruction-induced upregulation of integrin β1, DDR2, collagen 1a1, and α-SMA [1, 3]: alleviated
number of apoptotic cells (TUNEL-positive cells) [1, 4]: significantly reduced
numbers of proliferating tubular cells (Ki67-positive cells) [1, 4]: increased
expansion of the fibrotic area (collagen-positive area, Sirius red) [1, 5]: significantly reduced
numbers of proliferating tubular cells (Ki67-positive) [1, 5]: did not significantly differ
proliferating interstitial cells (Ki67) [1, 5]: more proliferating interstitial cells in DMSO treated mice
expression of epithelial markers (E-cadherin, SGLT2, NHE1) [1, 6]: significant increase
expression of mesenchymal marker proteins (integrin β1, DDR2, collagen 1a1, α-SMA) [1, 6]: significantly reduced
apoptotic (TUNEL-positive) tubular cells ([1]; treated during obstruction, obstruction released for 15 days (7*/15d)): only a few
width of the basement membrane (laminin alpha 1 thickness) ([1]; treated during the obstruction (7*/15d) or after its release (7/15*d), immunofluorescence): uniform and unchanging width
